Results from patent US20080200461A1, “MODULATORS OF ACETYL-COENZYME A CARBOXYLASE AND METHODS OF USE THEREOF” (Cropsolution, Inc., priority 2007, published 2008).

Biological target: Ustilago maydis K53R ACC (Mycosarcoma maydis, UniProt A0A0D1DYD5, K53R)
Experiment: biochemical
Assay type: biochemical

Question: `CC[N+](CC)(CCCCN(Cc1cc(C)cc(C)c1)Cc1cc(C)cc(C)c1)Cc1cc(C)cc(C)c1.[Br-]` [Compound 28, Diethyl(3,5-dimethylbenzyl)[bis-(3,5-dimethylbenzyl)aminobutyl]ammonium formate] was tested. Which IC50 did it give?
Answer: 52 µM
